{"source": "patent EP0728012B1", "about": "“NOVEL GnRH ANALOGUES WITH ANTITUMOUR EFFECTS AND PHARMACEUTICAL COMPOSITIONS THEREOF” (Lovas, Sandor, priority 1994, dated 1996)", "key": {"[1]": {"tested_on": "cytosolic progesterone receptor (cPgR)", "conditions": "animals bearing MCF-7 xenografts"}, "[2]": {"tested_on": "PC3", "test": "In vitro inhibition of cell proliferation (Example 19)", "type": "cell-based, human", "conditions": "30 µM active substance, conjugate, treated once", "method_in_brief": "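Starting from 400,000 cells per dish during exponential growth, cultures received GnRH antagonist analogues or lamprey GnRH-III at 1 to 50 µM every two days. Cell count determined on day 7.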"}, "[3]": {"tested_on": "MCF-7 xenograft", "test": "In vivo antitumour effect on MCF-7 xenograft in immunosuppressed mice", "parameters": "species or system CBA/Ca mice", "conditions": "for Tumour volume as control (%): conjugates 1 x 50 µg; for Inhibition % (tumour growth): daily s.c.", "protocol": "(§1) The immunosuppression of mice was carried out by using the method of Steel et al. [Br. J. Cancer, 37, 224-230 (1978)]. Immunosuppression and xeno-transplantation\n(§2) CBA-Ca female mice of about 6 weeks old were thymectomized and then, after one week, they were irradiated with 60Co (whole body irradiation; the lethal dose is 9.5 Gray). Within 24 hours 3 to 5 x 10^5 myelocytes were injected into the animals. Beneath the skin of the immunosuppressed mice 2 x 10^7 tumour cells or, in the case of later passages, […] were implanted. […] The treatment with steroid hormone was stopped by at least one week before beginning the investigation.\nIn the case of MCF-7 tumours (xenografts) the examinations were carried out with passages being in the phase of the 37th and 38th, respectively, transplantations.\nIn the case of mice bearing MCF-7 xenograft, the treatment was begun in the 4th week following xeno-transplantation.\n(§3) Recent investigations have begun on 28 animals bearing MCF-7 xenograft and on 28 animals bearing MDA-MB-231 xenograft. On animals bearing MCF-7 tumour the treatment was commenced in the 5th week following xeno-transplantation; the tumour volume was 205 to 225 mm^3. On animals bearing MDA-MB-231 tumour, the treatment was started in the 4th week after xeno-transplantation with a tumour volume of 140 to 150 mm^3. […] The control groups were daily treated with physiological saline s.c. (Each treated group consisting of 7 animals)."}, "[4]": {"tested_on": "Ishikawa", "conditions": "30 µM active substance, conjugate, treated once"}, "[5]": {"tested_on": "MXT mouse mammary tumour", "test": "In vivo antitumour effect on mice bearing MXT mouse mammary tumour", "parameters": "species or system CBA/Ca mice", "protocol": "The MXT mouse mammary carcinoma contains ER and PgR proteins; furthermore, it contains also GnRH receptors; therefore, this in vivo tumour model is suitable for studying both the direct and indirect effects. The treatment of mice bearing MXT mammary tumour was commenced on the day following transplantation. […] Table VI The animals were daily treated in s.c. route starting from the day following transplantation of MXT mouse mammary tumour. […] MI-1544: 75 µg/day/animal; MI-1892: 75 µg/day/animal."}, "[6]": {"tested_on": "MDA-MB-231 xenograft", "test": "In vivo antitumour effect on MDA-MB-231 xenograft in immunosuppressed mice", "parameters": "species or system CBA/Ca mice", "protocol": "as §1, §2, §3\nA more recent study was started on 28 animals bearing MDA-MB-231 xenograft. The treatment was begun in the 4th or 5th week following xenotransplantation. The tumour volume was 0.165 to 0.194 cm^3. […] (For treatment of the control group, see the preceding Examples). Each group consisted of 7 animals."}, "[7]": {"conditions": "after 6 week treatment, xenograft not given"}, "[8]": {"conditions": "MXT mouse mammary tumour, Treatment weeks: 13, 1x75 µg daily s.c."}, "[9]": {"conditions": "MXT mouse mammary tumour, Treatment weeks: 20, 1x75 µg daily s.c."}, "[10]": {"conditions": "Table V, treatment week 2, conjugates 1x50 µg daily s.c."}, "[11]": {"conditions": "Table V, treatment week 6, MI-1892 2x25 µg, conjugates 1x50 µg daily s.c."}, "[12]": {"conditions": "week 0, daily s.c., P-GFLG-1544 1 x 50 µg, P-GFLG-1892 1 x 75 µg"}, "[13]": {"conditions": "week 1, daily s.c., P-GFLG-1544 1 x 50 µg, P-GFLG-1892 1 x 75 µg"}, "[14]": {"conditions": "week 2, daily s.c., P-GFLG-1544 1 x 50 µg, P-GFLG-1892 1 x 75 µg"}, "[15]": {"conditions": "week 3, daily s.c., P-GFLG-1544 1 x 50 µg, P-GFLG-1892 1 x 75 µg"}, "[16]": {"conditions": "week 4, daily s.c., P-GFLG-1544 1 x 50 µg, P-GFLG-1892 1 x 75 µg"}, "[17]": {"conditions": "week 5, daily s.c., P-GFLG-1544 1 x 50 µg, P-GFLG-1892 1 x 75 µg"}, "[18]": {"conditions": "week 6, daily s.c., P-GFLG-1544 1 x 50 µg, P-GFLG-1892 1 x 75 µg"}}}
{"substance": "Ac-D-Trp^1,3,D-Cpa^2, {Lys[n-poly(N-vinyl pyrrolidone-co-maleic acid)-Gly-Phe-Leu-Gly-]}^5, [a-Asp(DEA)]^6, D-Ala^10-GnRH [P-GFLG-1892]", "values": [{"measurement": "decrease of the uterus cPgR level", "setting": "[1]", "result": 23, "unit": "%"}, {"measurement": "% Inhibition of cell division (proliferation)", "setting": "[2]", "result": 51, "unit": "%"}, {"measurement": "rate of tumour growth", "setting": "[3]; MCF-7 xenograft, first study, conjugates 150 µg in every 3rd day, P-GFLG-OH daily s.c.", "result": "not influenced"}, {"measurement": "decrease in the tumour volume in comparison to controls", "setting": "[3]; MCF-7 xenograft, first study, end of 4th week, MI-1892 2 x 25 µg daily, conjugates 50 µg daily once", "result": 30, "unit": "%"}, {"measurement": "tumour volume", "setting": "[3]; MCF-7 xenograft, 4th week of treatment", "result": 2.428, "unit": "cm^3"}, {"measurement": "Tumour volume as control (%)", "setting": "[3]; MCF-7 xenograft, treatment week 2", "result": 70, "unit": "%"}, {"measurement": "Inhibition % (tumour growth)", "setting": "[3]; MCF-7 xenograft, treatment week 2, listed as 5. P-GFLG-1892", "result": 30, "unit": "%"}, {"measurement": "Inhibition % (tumour growth)", "setting": "[3]; MCF-7 xenograft, treatment week 4", "result": 37, "unit": "%"}, {"measurement": "Tumour volume as control (%)", "setting": "[3]; MCF-7 xenograft, treatment week 6, MI-1892 2 x 25 µg", "result": 57, "unit": "%"}, {"measurement": "Inhibition % (tumour growth)", "setting": "[3]; MCF-7 xenograft, treatment week 6, listed as 5. P-GFLG-1892", "result": 43, "unit": "%"}, {"measurement": "Volume (cm^3) of tumours", "setting": "[3]; [7]", "result": "4.327 ± 0.379", "unit": "cm^3"}, {"measurement": "Weight (g) of tumours", "setting": "[3]; [7]", "result": "4.0 ± 0.9", "unit": "g"}, {"measurement": "% Inhibition of cell division (proliferation)", "setting": "[4]", "result": 91, "unit": "%"}, {"measurement": "Inhibition %", "setting": "[5]; [8]", "result": 72, "unit": "%"}, {"measurement": "Tumour volume as control (%)", "setting": "[5]; [8]", "result": 28, "unit": "%"}, {"measurement": "Inhibition %", "setting": "[5]; [9]", "result": 62, "unit": "%"}, {"measurement": "Tumour volume as control (%)", "setting": "[5]; [9]", "result": 38, "unit": "%"}, {"measurement": "Tumour volume (cm^3)", "setting": "[5]; day 9, 75 µg/day/animal s.c.", "result": 0.29, "unit": "cm^3"}, {"measurement": "Tumour volume as control (%)", "setting": "[5]; day 9, 75 µg/day/animal s.c.", "result": 40, "unit": "%"}, {"measurement": "Tumour volume (cm^3)", "setting": "[5]; day 11, 75 µg/day/animal s.c.", "result": 0.66, "unit": "cm^3"}, {"measurement": "Tumour volume as control (%)", "setting": "[5]; day 11, 75 µg/day/animal s.c.", "result": 36, "unit": "%"}, {"measurement": "Tumour volume (cm^3)", "setting": "[5]; day 13, 75 µg/day/animal s.c.", "result": 0.91, "unit": "cm^3"}, {"measurement": "Tumour volume as control (%)", "setting": "[5]; day 13, 75 µg/day/animal s.c.", "result": 28, "unit": "%"}, {"measurement": "Tumour volume (cm^3)", "setting": "[5]; day 17, 75 µg/day/animal s.c.", "result": 1.86, "unit": "cm^3"}, {"measurement": "Tumour volume as control (%)", "setting": "[5]; day 17, 75 µg/day/animal s.c.", "result": 36, "unit": "%"}, {"measurement": "Tumour volume (cm^3)", "setting": "[5]; day 18, 75 µg/day/animal s.c.", "result": 3.1, "unit": "cm^3"}, {"measurement": "Tumour volume as control (%)", "setting": "[5]; day 18, 75 µg/day/animal s.c.", "result": 42, "unit": "%"}, {"measurement": "Tumour volume (cm^3)", "setting": "[5]; day 20, 75 µg/day/animal s.c.", "result": 3.61, "unit": "cm^3"}, {"measurement": "Tumour volume as control (%)", "setting": "[5]; day 20, 75 µg/day/animal s.c.", "result": 38, "unit": "%"}, {"measurement": "Tumour volume (cm^3)", "setting": "[5]; day 24, 75 µg/day/animal s.c.", "result": 6.07, "unit": "cm^3"}, {"measurement": "Tumour volume as control (%)", "setting": "[5]; day 24, 75 µg/day/animal s.c.", "result": 48, "unit": "%"}, {"measurement": "Tumour volume (cm^3)", "setting": "[5]; day 26, 75 µg/day/animal s.c.", "result": 8.91, "unit": "cm^3"}, {"measurement": "Tumour volume as control (%)", "setting": "[5]; day 26, 75 µg/day/animal s.c.", "result": 64, "unit": "%"}, {"measurement": "tumour-free animals", "setting": "[6]; MDA-MB-231 xenograft, end of the 6th week, first series", "result": "A tumour-free animal was found"}, {"measurement": "Inhibition %", "setting": "[6]; [10]", "result": 26.5, "unit": "%"}, {"measurement": "Tumour volume as control (%)", "setting": "[6]; [10]", "result": 73.5, "unit": "%"}, {"measurement": "Inhibition %", "setting": "[6]; [11]", "result": 44, "unit": "%"}, {"measurement": "Tumour volume as control (%)", "setting": "[6]; [11]", "result": 56, "unit": "%"}, {"measurement": "Tumour volume (cm^3)", "setting": "[6]; [12]", "result": 0.15, "unit": "cm^3"}, {"measurement": "Tumour volume as control (%)", "setting": "[6]; [12]", "result": 100, "unit": "%"}, {"measurement": "Tumour volume (cm^3)", "setting": "[6]; [13]", "result": 0.21, "unit": "cm^3"}, {"measurement": "Tumour volume as control (%)", "setting": "[6]; [13]", "result": 84, "unit": "%"}, {"measurement": "Tumour volume (cm^3)", "setting": "[6]; [14]", "result": 0.25, "unit": "cm^3"}, {"measurement": "Tumour volume as control (%)", "setting": "[6]; [14]", "result": 79, "unit": "%"}, {"measurement": "Tumour volume (cm^3)", "setting": "[6]; [15]", "result": 0.27, "unit": "cm^3"}, {"measurement": "Tumour volume as control (%)", "setting": "[6]; [15]", "result": 74, "unit": "%"}, {"measurement": "Tumour volume (cm^3)", "setting": "[6]; [16]", "result": 0.34, "unit": "cm^3"}, {"measurement": "Tumour volume as control (%)", "setting": "[6]; [16]", "result": 81, "unit": "%"}, {"measurement": "Tumour volume (cm^3)", "setting": "[6]; [17]", "result": 0.33, "unit": "cm^3"}, {"measurement": "Tumour volume as control (%)", "setting": "[6]; [17]", "result": 75, "unit": "%"}, {"measurement": "Tumour volume (cm^3)", "setting": "[6]; [18]", "result": 0.33, "unit": "cm^3"}, {"measurement": "Tumour volume as control (%)", "setting": "[6]; [18]", "result": 58, "unit": "%"}]}
